Experiments:
[1] = test system: KIR2DL2 positive NK cells vs 721.221-ICP47-C1 cells; assay: CAM cytotoxicity assay, 721.221-ICP47-C1 targets; type: cell-based, human; details: NK cells from MS patients, 4 h, 26 °C, Figure 5c, MBP, pU24-6B, U24-7 p < 0.001, pU24-6A p: NS (Fisher exact test)
[2] = test system: NK cells from MS patients co-cultured with 721.221-ICP47-C1 cells; assay: CD107a degranulation assay; type: cell-based, human; details: 721.221-ICP47-C1 cells incubated with pU24-6A, Figure 5e; p < 0.01 (Fisher exact test)
hNedd4L-WW3* [3] = target: T1, hNedd4L-WW3* (Homo sapiens, UniProt Q96PU5); details: binding to hNedd4L-WW3* domain, quoted from earlier work; ref 30 (Sang et al.); cited from earlier work
T1 construct: GST (N, cleaved yes); made in house; host or cells: E. coli BL21(DE3), pGEX-4T2

hNedd4L-WW3* [4] = target: T1, hNedd4L-WW3*; details: NMR titrations; cited from earlier work
Fyn-SH3 = Fyn-SH3 (Homo sapiens, UniProt P06241); details: phosphorylated MBP; cited from earlier work
actin = details: cited from earlier work
[5] = cited from earlier work

T1 sequence (Q96PU5 with tags, fused parts or gaps): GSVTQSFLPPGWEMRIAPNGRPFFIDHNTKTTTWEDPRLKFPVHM
Fyn-SH3, sequence (P06241 with tags, fused parts or gaps): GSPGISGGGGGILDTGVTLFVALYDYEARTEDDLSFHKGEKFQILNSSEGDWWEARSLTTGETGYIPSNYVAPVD

| Molecule | Killing of 721.221-ICP47-C1 cells by KIR2DL2 positive NK cells [1] | CD107a expression, KIR2DL2 positive vs negative NK cells [2] | ΔG° (hNedd4L-WW3* [3]) | ΔH° (hNedd4L-WW3* [3]) [kJ/mol] | ΔS° (hNedd4L-WW3* [3]) [J. mol^−1.K^−1] | hNedd4L-WW3* residue perturbed (hNedd4L-WW3* [4]) | Effect of MBP phosphorylation on interaction with Fyn-SH3 (Fyn-SH3) | Effect of MBP phosphorylation on actin polymerization and bundling (actin) | Effect of MBP phosphorylation on lipid interaction [5] |
| --- | --- | --- | --- | --- | --- | --- | --- | --- | --- |
| CSCC[C@H](N)C(=O)N[C@@H](CC(=O)O)C(=O)N1CCC[C@H]1C(=O)N1CCC[C@H]1C(=O)N[C@@H](CCCNC(=N)N)C(=O)N[C@H](C(=O)N1CCC[C@H]1C(=O)N1CCC[C@H]1C(=O)N1CCC[C@H]1C(=O)N[C@@H](CO)C(=O)N[C@@H](Cc1ccc(O)cc1)C(=O)N[C@@H](CO)C(=O)N[C@@H](CCC(=O)O)C(=O)N[C@H](C(=O)N[C@@H](CC(C)C)C(=O)O)C(C)C)[C@@H](C)OP(=O)(O)O [pU24-6A] | maintained KIR2DL2 positive NK cells unresponsive towards 721.221-ICP47-C1 cells | lower in KIR2DL2 positive NK cells in comparison with KIR2DL2 negative NK cells | (−3.49 ± 0.05)×10^1 kJ.mol^−1 | -58.7 ± 0.4 | -79.8 ± 0.9 | R492 was found to be perturbed | – | – | – |
| MBP: myelin basic protein, a key component of the myelin sheath (IVTPRTPPPSQGKGR) | induced 721.221-ICP47-C1 cell killing | – | – | – | – | – | reduced interaction with Fyn-SH3 | decrease the ability of MBP to polymerize actin and to bundle actin filaments | decreases the interaction between MBP and lipids |
